Four compounds from paper PMC3731160 (ACS medicinal chemistry letters, 2013) can be followed below.

A short description of series [1]: Pharmacokinetics and brain permeability in female C57Bl/6 mice. To be noted: 1h and 2h.
Series [2] is described as follows: Aqueous solubility in PBS buffer by nephelometry. To be noted: pH 7.
The target in series [3] is EP2 receptor (Homo sapiens, UniProt P43116). The experiment in a line: PGE2-induced cAMP accumulation. To be noted: competitive antagonism of EP2. Type of series: cell-based. On the technique in general: Cyclic AMP is a second messenger, typically raised through Gs and lowered through Gi signalling.
Sequence of EP2 receptor (P43116 whole entry): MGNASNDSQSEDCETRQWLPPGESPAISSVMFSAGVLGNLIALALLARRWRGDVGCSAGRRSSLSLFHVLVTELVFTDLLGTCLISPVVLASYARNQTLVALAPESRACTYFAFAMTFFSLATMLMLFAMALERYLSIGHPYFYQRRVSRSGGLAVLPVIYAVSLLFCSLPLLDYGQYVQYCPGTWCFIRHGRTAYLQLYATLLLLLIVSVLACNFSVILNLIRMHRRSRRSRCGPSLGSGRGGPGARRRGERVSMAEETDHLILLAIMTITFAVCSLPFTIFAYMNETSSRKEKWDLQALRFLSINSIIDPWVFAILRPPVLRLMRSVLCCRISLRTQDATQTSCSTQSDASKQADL
Series [4] has as its target IP receptor (Homo sapiens, UniProt P43119). Kind of series: cell-based.
A short description of series [5]: Metabolic stability in pooled human liver microsomes. The following applies: 1 and 10 µM. In general terms: Liver microsomes are vesicles of endoplasmic reticulum, rich in cytochrome P450 enzymes.
Series [6] can be described thus: Metabolic stability in pooled mouse liver microsomes. The following applies: 1 and 10 µM.
The subject of series [7] is β2-Adrenergic receptors. The experiment in a line: β2-adrenergic receptor counter assay. To be noted: up to 40 µM, agonist saturated conditions.
Series [8] deals with EP4 receptor (Homo sapiens, UniProt P35408). To be noted: for inhibition of EP4 receptor: up to 40 µM, agonist saturated conditions.
Sequence of EP4 receptor (P35408 whole entry): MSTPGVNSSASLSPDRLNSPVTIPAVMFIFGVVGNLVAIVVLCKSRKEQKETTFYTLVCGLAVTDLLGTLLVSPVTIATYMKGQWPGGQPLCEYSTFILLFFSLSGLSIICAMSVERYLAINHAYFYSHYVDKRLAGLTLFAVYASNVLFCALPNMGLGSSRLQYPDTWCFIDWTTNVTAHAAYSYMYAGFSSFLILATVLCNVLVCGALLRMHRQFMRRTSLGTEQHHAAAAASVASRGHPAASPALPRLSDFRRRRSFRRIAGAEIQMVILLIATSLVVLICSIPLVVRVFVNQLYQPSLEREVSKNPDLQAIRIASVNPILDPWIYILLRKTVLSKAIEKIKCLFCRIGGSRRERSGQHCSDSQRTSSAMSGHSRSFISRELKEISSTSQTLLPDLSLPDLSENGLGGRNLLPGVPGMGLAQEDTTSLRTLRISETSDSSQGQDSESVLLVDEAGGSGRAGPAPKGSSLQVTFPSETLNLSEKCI
Series [9] has as its system P388D1 macrophages. The experiment in a line: Butaprost-induced mRNA expression of inflammatory markers in P388D1 macrophages. Type of series: cell-based.

The structures appear in SMILES notation. ≈ marks a conversion by molar mass, not a printed value. Where two headings read alike, the source gives them in different places.

Sequence of IP receptor (P43119 whole entry): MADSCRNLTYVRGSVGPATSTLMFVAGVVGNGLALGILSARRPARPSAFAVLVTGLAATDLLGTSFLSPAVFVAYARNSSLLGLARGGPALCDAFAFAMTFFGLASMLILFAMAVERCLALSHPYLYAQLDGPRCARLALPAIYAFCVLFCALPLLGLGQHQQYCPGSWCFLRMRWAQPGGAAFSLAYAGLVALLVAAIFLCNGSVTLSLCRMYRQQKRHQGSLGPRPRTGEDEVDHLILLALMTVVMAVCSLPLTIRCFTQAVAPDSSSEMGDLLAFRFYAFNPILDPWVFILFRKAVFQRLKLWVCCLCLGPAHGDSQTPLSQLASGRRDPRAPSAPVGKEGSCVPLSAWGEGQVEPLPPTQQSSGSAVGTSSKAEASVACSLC

As a reminder, the solubility is how much of the substance goes into solution per volume. Read a high solubility as much dissolved substance. For the compound `CCc1nnc(NS(=O)(=O)c2ccc(NC(=S)NC(=O)/C=C/c3ccc(F)cc3)cc2)s1` [TG6-129, (E)-N-((4-(N-(5-ethyl-1,3,4-thiadiazol-2-yl)sulfamoyl)phenyl)carbamothioyl)-3-(4-fluorophenyl)acrylamide], the “compound found in brain samples” value in [1] (5mg/kg ip) and in series [1] (10 mg/kg oral gavage) was “no detectable amount” in each case. Further, in series [2], the concentration in solution (solubility) was 145 µM (≈ 71.3 µg/mL). For the same compound, the Schild regression slope in series [3] is listed as 1.2. This compound also yielded a Kb in series [4] of 199 nM. Moreover, the “compound remaining at 60 minutes” value in series [5] and in series [6] was 40–60% throughout. Besides, the “inhibition of β2-Adrenergic receptor” value in series [7] was “without affecting”; in [7] (listed as 1) it was “no inhibition”. For the same compound, the “inhibition of EP4 receptor” value was “without affecting” in series [8] and “no inhibition” in series [8] (listed as 1).
Take `CCCC1([C@H](O)C/C=C/[C@H]2[C@H](O)CC(=O)[C@@H]2CCCCCCC(=O)OC)CCC1` [butaprost]: in series [9] (butaprost 10 µM, 2 h), the “mRNA expression of COX-2, IL-1β, IL-6, IL-12 (p40), IL-17, IL-23, TNF-α” value is recorded as “significantly elevated”. In series [9] (butaprost, 2h), the “expression of EP2 receptor mRNA” value was “only a slight increase”.
In the case of `COc1cc(NS(=O)(=O)c2ccc(NC(=S)NC(=O)/C=C/c3ccc(F)cc3)cc2)ncn1` [compound 6], the “compound remaining at 60 minutes” value in [5] and in series [6] was 40–60% in each case.
For `COc1cc(NS(=O)(=O)c2ccc(NC(=S)NC(=O)c3sc4cc(F)ccc4c3Cl)cc2)nc(OC)n1` [compound 8], in [8] (Schild KB, average of 2–5 independent experiments), the “KB (µM) EP4” value is “submicromolar”.
